Assays:
kinase domain of BMX [1] = molecular target: T1, kinase domain of BMX (Homo sapiens, UniProt P51813); experiment: Thermal shift (ΔTm) assay; format: binding; details: 2 μM kinase domain, 10 μM inhibitor; mean ± SD of at least three measurements
T1 construct: The kinase domains of JAK3 and BMX at 2 μM
Description: (§1) The kinase domains of JAK3 and BMX at 2 μM were mixed with the inhibitors at 10 μM, and subsequently SyPRO orange dye (Invitrogen Carlsbad, CA, USA) was added. The thermal shift assay and data evaluation were performed as described previously using a Real-Time PCR Mx3005p machine (Stratagene, La Jolla, CA, USA).

kinase domain of JAK3 = molecular target: T2, kinase domain of JAK3 (Homo sapiens, UniProt P52333); experiment: Thermal shift (ΔTm) assay; format: binding; details: 2 μM kinase domain, 10 μM inhibitor; mean ± SD of at least three measurements
T2 construct: The kinase domains of JAK3 and BMX at 2 μM; made in house
Description: as §1

BMX = molecular target: T3, BMX (Homo sapiens, UniProt P51813); experiment: Radiometric kinase assay (Reaction Biology HotSpot); format: biochemical; details: radiometric HotSpot, five-dose singlicate, [ATP] = 10 μM
T3 construct: purchased Reaction Biology Corporation
T3 sequence (P51813 1-675): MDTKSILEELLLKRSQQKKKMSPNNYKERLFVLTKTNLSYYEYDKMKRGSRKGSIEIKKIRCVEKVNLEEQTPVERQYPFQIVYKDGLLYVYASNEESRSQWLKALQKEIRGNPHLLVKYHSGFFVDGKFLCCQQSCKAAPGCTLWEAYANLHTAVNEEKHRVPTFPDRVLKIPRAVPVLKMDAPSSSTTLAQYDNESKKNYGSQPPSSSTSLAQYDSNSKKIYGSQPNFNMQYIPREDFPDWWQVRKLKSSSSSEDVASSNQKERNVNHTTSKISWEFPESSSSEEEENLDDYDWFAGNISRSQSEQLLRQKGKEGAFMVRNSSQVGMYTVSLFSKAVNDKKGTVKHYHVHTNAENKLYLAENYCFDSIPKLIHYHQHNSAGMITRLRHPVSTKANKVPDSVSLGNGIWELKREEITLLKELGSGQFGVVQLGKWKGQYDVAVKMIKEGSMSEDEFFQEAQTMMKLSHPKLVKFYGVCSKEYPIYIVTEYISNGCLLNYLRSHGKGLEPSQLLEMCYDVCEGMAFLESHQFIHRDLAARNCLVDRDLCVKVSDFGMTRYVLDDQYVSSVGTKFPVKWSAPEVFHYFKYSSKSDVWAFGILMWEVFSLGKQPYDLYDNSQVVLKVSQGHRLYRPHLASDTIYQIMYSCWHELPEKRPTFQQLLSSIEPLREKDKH
Description: (§2) If not mentioned differently, in vitro profiling of compounds was performed at Reaction Biology Corporation using the HotSpot™ assay platform.

JAK3 = molecular target: T4, JAK3 (Homo sapiens, UniProt P52333); experiment: as above; format: biochemical; details: radiometric HotSpot, five-dose singlicate, [ATP] = 10 μM
T4 construct: purchased Reaction Biology Corporation
T4 sequence (P52333 1-1124): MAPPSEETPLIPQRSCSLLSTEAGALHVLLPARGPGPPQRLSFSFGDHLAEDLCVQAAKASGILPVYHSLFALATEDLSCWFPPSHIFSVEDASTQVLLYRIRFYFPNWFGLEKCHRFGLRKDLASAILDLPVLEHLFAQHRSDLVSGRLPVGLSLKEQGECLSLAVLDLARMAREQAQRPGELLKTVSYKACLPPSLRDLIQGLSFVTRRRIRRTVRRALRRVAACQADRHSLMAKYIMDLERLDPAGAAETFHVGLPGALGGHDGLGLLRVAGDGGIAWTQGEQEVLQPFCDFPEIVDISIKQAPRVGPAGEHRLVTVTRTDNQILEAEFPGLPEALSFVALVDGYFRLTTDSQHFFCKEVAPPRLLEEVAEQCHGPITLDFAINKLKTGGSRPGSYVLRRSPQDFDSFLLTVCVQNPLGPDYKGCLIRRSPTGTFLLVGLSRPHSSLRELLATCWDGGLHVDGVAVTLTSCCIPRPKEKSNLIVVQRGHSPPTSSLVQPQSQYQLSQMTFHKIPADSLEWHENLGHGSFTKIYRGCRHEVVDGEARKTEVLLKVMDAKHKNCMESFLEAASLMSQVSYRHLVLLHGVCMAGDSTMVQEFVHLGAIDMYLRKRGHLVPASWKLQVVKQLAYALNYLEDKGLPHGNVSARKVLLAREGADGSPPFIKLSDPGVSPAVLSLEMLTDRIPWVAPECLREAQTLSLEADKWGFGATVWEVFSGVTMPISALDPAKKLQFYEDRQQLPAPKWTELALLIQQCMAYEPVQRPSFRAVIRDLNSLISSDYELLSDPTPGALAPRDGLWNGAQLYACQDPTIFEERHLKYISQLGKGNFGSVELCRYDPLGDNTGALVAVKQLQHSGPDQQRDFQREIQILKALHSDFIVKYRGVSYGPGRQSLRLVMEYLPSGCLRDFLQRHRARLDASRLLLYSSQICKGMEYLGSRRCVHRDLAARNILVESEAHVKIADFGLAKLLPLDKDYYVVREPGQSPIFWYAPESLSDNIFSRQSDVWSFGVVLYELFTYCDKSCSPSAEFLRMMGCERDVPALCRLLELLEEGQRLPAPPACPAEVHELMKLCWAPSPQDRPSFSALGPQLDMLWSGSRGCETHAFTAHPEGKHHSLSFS
Description: as §2

[2] = molecular target: T5, Full length BMX (C-terminal NanoLuc fusion) (Homo sapiens, UniProt P51813); experiment: Cellular NanoBRET target engagement assay in HEK293T cells; format: cell-based; details: 0.5 µM Tracer K4, 2 h incubation
T5 construct: Full length BMX and BTK was cloned into pFC32K; expressed in transfected cells; host or cells: HEK293T
T5 sequence (P51813 1-675): T3 sequence (P51813 1-675)
Description: (§3) Full length BMX and BTK was cloned into pFC32K (Promega, Madison, WI, USA) for expression of a C-terminal NanoLuc fusion. The plasmids were transfected into HEK293T cells cultured in DMEM (Gibco, Waltham, MA, USA) supplemented with 10% fetal bovine serum (Gibco, Waltham, MA, USA) and Penicillin/Streptamycin (Gibco, Waltham, MA, USA). NanoBRET assays were performed using the protocol published previously. Briefly, after transfection and 20 h incubation cells were harvested and subsequently resuspended in OptiMEM (Gibco, Waltham, MA, USA). Cells were aliquoted onto […] (Greiner, Kremsmünster, Austria), and inhibitors as well as 0.5 µM Tracer K4 (Promega) for BMX or 0.5 µM Tracer K5 (Promega, Madison, WI, USA) for BTK were added using an ECHO acoustic dispenser. The plates were incubated at 37 °C with 5% CO2 for 2 h prior to the addition of both NanoBRET NanoGlo substrate (Promega, Madison, WI, USA) and extracellular NanoLuc inhibitor. BRET luminescence (450 nm for donor emission and 610 nm for BRET signal) was measured using PHERAstar FSX plate reader (BMG Labtech, Ortenberg, Germany). Milli-BRET units (mBU) were calculated as a ratio between BRET signal and the overall measured luminescence. A dose–response fitting was applied and IC50 values were calculated using the Prism software. […] Experiments were performed as tripicates and repeated at least three times.

[3] = molecular target: T6, Full length BTK (C-terminal NanoLuc fusion) (Homo sapiens, UniProt Q06187); experiment: as above; format: cell-based; details: 0.5 µM Tracer K5, 2 h incubation
T6 construct: Full length BMX and BTK was cloned into pFC32K; expressed in transfected cells; host or cells: HEK293T
T6 sequence (Q06187 whole entry, the tested form may be a part): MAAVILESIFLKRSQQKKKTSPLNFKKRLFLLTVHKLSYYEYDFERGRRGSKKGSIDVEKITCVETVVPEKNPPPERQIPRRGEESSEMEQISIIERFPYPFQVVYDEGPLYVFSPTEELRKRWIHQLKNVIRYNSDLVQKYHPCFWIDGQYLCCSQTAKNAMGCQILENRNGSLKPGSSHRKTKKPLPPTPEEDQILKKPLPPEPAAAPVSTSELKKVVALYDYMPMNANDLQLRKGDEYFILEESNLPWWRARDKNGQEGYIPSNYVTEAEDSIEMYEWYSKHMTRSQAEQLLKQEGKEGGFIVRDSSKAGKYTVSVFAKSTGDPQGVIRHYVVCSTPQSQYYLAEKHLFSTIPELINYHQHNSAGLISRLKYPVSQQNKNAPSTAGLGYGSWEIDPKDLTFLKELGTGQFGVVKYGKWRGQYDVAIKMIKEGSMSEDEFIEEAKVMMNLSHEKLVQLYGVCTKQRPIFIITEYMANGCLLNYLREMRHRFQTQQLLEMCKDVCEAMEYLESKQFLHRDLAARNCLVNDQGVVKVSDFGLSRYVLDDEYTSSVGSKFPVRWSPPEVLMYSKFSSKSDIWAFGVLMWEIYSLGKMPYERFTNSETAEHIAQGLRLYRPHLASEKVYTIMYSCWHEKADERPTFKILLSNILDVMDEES
Description: as §3

kinase domain of BMX [4] = molecular target: T1, kinase domain of BMX; experiment: Mass spectrometric investigation of covalent binding to BMX (ESI-TOF); details: 4 °C
Description: The kinase domain of BMX was diluted to 0.05 mM with buffer containing 20 mM Tris pH 8.0, 200 mM NaCl, 0.5 mM TCEP (pH 7.0) and was subsequently mixed with 0.075 mM inhibitors (ratio of protein to inhibitor of 1:1.5). The mixture was incubated at 4°C. The samples were taken at different time points, the reaction stopped by diluting the sample with a 200-fold excess of 1% formic acid. The denatured protein and the adducts were assessed using electrospray time-of-flight (ESI-TOF) mass spectrometry.

How did the ΔTm at 10 µM (kinase domain of BMX [1]) turn out when `C=CC(=O)Nc1cccc(-c2c[nH]c3ncc(C(=O)NCC4CCCCC4)cc23)c1` [Compound 11f, 3-(3-acrylamidophenyl)-N-(cyclohexylmethyl)-1H-pyrrolo[2,3-b]pyridine-5-carboxamide] was run?
Its ΔTm at 10 µM is 3.68 ± 0.13 °C.

And the ΔTm at 10 µM (kinase domain of JAK3)?
The ΔTm at 10 µM was 5.54 ± 0.82 °C.

Which results are given for `C=CC(=O)Nc1cccc(-c2c[nH]c3ncc(C(=O)NCc4ccccc4)cc23)c1` [Compound 11g, 3-(3-acrylamidophenyl)-N-benzyl-1H-pyrrolo[2,3-b]pyridine-5-carboxamide]?
ΔTm at 10 µM (kinase domain of BMX [1]): 6.84 ± 0.23 °C; ΔTm at 10 µM (kinase domain of JAK3): 8.29 ± 1.26 °C

With `C=CC(=O)Nc1cccc(-c2c[nH]c3ncc(NC(=O)c4ccco4)cc23)c1` [Compound 12d, N-(3-(3-acrylamidophenyl)-1H-pyrrolo[2,3-b]pyridin-5-yl)furan-2-carboxamide] as the molecule, how does the IC50 (BMX) read?
The IC50 was 4 nM.

And the IC50 (JAK3)?
The IC50 was 1080 nM.

And the ΔTm at 10 µM (kinase domain of BMX [1])?
The ΔTm at 10 µM was 10.75 ± 0.09 °C.

And the ΔTm at 10 µM (kinase domain of JAK3)?
The ΔTm at 10 µM was 9.93 ± 0.12 °C.

How did the ΔTm at 10 µM (kinase domain of BMX [1]) turn out when `C=CC(=O)Nc1cccc(-c2c[nH]c3ncc(NC(=O)c4ccccc4)cc23)c1` [Compound 12e, N-(3-(3-acrylamidophenyl)-1H-pyrrolo[2,3-b]pyridin-5-yl)benzamide] was run?
The ΔTm at 10 µM was 11.37 ± 0.03 °C.

And the ΔTm at 10 µM (kinase domain of JAK3)?
Its ΔTm at 10 µM is 10.9 ± 0.95 °C.

How did the ΔTm at 10 µM (kinase domain of BMX [1]) turn out when `C=CC(=O)Nc1cccc(-c2c[nH]c3ncc(NC(C)=O)cc23)c1` [Compound 12f, N-(3-(5-acetamido-1H-pyrrolo[2,3-b]pyridin-3-yl)phenyl)acrylamide] was run?
The ΔTm at 10 µM was 10.6 ± 0.12 °C.

What about the ΔTm at 10 µM (kinase domain of JAK3) of the same molecule?
Its ΔTm at 10 µM is 13.4 ± 0.43 °C.

How did the ΔTm at 10 µM (kinase domain of BMX [1]) turn out when `C=CC(=O)Nc1cccc(-c2c[nH]c3ncc(NC(=O)Cc4ccccc4)cc23)c1` [Compound 12h, N-(3-(5-(2-phenylacetamido)-1H-pyrrolo[2,3-b]pyridin-3-yl)phenyl)acrylamide] was run?
The ΔTm at 10 µM was 11.9 °C.

And the ΔTm at 10 µM (kinase domain of JAK3)?
Its ΔTm at 10 µM is 12.1 °C.

How did the IC50 (BMX) turn out when `C=CC(=O)Nc1cccc(-c2c[nH]c3ncc(NC(=O)Cc4cccs4)cc23)c1` [Compound 12i, N-(3-(5-(2-(thiophen-2-yl)acetamido)-1H-pyrrolo[2,3-b]pyridin-3-yl)phenyl)acrylamide] was run?
The IC50 was 16 nM.

And the ΔTm at 10 µM (kinase domain of BMX [1])?
The ΔTm at 10 µM was 11.5 °C.

And the ΔTm at 10 µM (kinase domain of JAK3)?
The ΔTm at 10 µM was 10.1 °C.

And the IC50 [2]?
Its IC50 is 17 ± 7 nM.

And the IC50 [3]?
The IC50 was 37 ± 10 nM.

What about the “BMX covalent adduct fraction, 30 min” value (kinase domain of BMX [4]; 1.5-fold molar excess of inhibitor, 30 min) of the same molecule?
Its value is 100%.

And the “BMX covalent adduct fraction, 60 min” value (kinase domain of BMX [4]; 1.5-fold molar excess of inhibitor, 60 min)?
The value was 100%.

What about the “BMX covalent adduct fraction, 120 min” value (kinase domain of BMX [4]; 1.5-fold molar excess of inhibitor, 120 min) of the same molecule?
Its value is 100%.

And the “BMX covalent adduct fraction, 240 min” value (kinase domain of BMX [4]; 1.5-fold molar excess of inhibitor, 240 min)?
The value was 100%.

What about the “covalent labeling of BMX (in words)” value (kinase domain of BMX [4]; 1.5-fold molar excess, complete labeling refers to 30 min) of the same molecule?
Its value is “complete labeling”.
